Source: PMC11009412, “Pathogenic mutations of human phosphorylation sites affect protein–protein interactions” (Nature Communications, 2024)
“Also recorded” adds a separate entry of the source.

Legend:
[1] = system: BirA*-FLAG-GATAD1 variants in Flp-In-293 cells; assay: BioID proximity labelling of full-length GATAD1 variants (SILAC); format: cell-based, human; details: GATAD1 WT vs S102P, significant proteins only; for Log2_Ratio.H.L.normalized.WT_S102P_forward: forward experiment (label swap performed, sign inverted against the H/L ratio); for Log2_Ratio.H.L.normalized.WT_S102P_forward / Log2_Ratio.H.L.normalized.WT_S102P_reverse: log2 of normalized H/L ratio; for Ratio.H.L.normalized.WT_S102P_forward: forward experiment; for Log2_Ratio.H.L.normalized.WT_S102P_reverse / Ratio.H.L.normalized.WT_S102P_reverse: reverse experiment
From the text: The GATAD1 gene variants were ordered in a pTwist ENTR Kozak vector from Twist Bioscience. The genes were then transferred to a pDEST_pcDNA5_BirA_FLAG_Nterm vector[97] using the Gateway Clonase II system (Thermo Fisher Scientific). The resulting vectors, pEXPR_GATAD1-WT_N-term_BirA_FLAG, pEXPR_GATAD1-S102P_N-term_BirA_FLAG, pEXPR_GATAD1-S102D_N-term_BirA_FLAG, and pEXPR_GATAD1-S102A_N-term_BirA_FLAG, were used to generate tetracycline-inducible stable Flp-In^TM-293 T-REx cells. A 6-well plate was co-transfected with 0.5 µg of the pEXPR plasmid and 1 µg of the pOG44 Flp-recombinase expression vector (Thermo Fisher Scientific) using 4.5 µg of PEI (Polysciences) as a transfection reagent. The following day, the cells were trypsinized and transferred to a 10 cm dish containing DMEM supplemented with 10% FCS and 200 µg/ml hygromycin B (Invivogen) for selection. The cells were cultured for approximately 18 days with media exchange every 3 days until visible colonies were observed. After around 18 days, the colonies were trypsinized and transferred to another 10 cm dish for further characterization and experiments.
Stable Flp-In^TM-293 cell lines expressing GATAD1 variants were cultured using SILAC light (Lys0, Arg0) and SILAC heavy (Lys8, Arg10) media, as explained in the cell culture section. After full labeling, cells were split into 15 cm dishes and were treated with 1 μg/mL tetracycline for 24 h to induce the expression of GATAD1. After the induction period, cells were incubated with 50 μM biotin overnight for proximity biotinylation. As a control, wild-type GATAD1 cells, without biotin or tetracycline addition, were used. Samples were multiplexed, as shown in Supplementary Fig. 41A with both forward and reverse label swap (n = 2). Cells were then lysed in lysis buffer (50 mM Tris-HCl pH 7.5, 150 mM NaCl, 1% Triton X-100, 1 mM EDTA, 1 mM EGTA, 0.1% SDS) with freshly added protease inhibitors and 1% sodium deoxycholate. To digest the excess DNA, 1 μl of Benzonase was added, and the samples were incubated for 20 min at 37 °C. Biotinylated proteins were enriched for 3 h at 4 °C using streptavidin-sepharose beads (GE Cat# 17-5113-01). Beads were pre-washed twice with 0.01% BSA and twice with lysis buffer. After enrichment, the beads were washed one time with lysis buffer, two times with washing buffer (50 mM HEPES-KOH pH 8.0, 100 mM KCl, 10% glycerol, 2 mM EDTA, 0.1% NP-40), and six times with 50 mM ammonium bicarbonate. Beads were resuspended in ammonium bicarbonate, and an on-bead protein digest with 1 μg of trypsin followed overnight. The next day, the digested proteins were transferred to a fresh tube and were incubated with 10 mM DTT for 30 min at 37 °C and with 55 mM iodoacetamide for 20 min at 37 °C in the dark. Samples were desalted with StageTips.
Peptides were separated using reversed-phase liquid chromatography (EASY nLC II 1200, Thermo Fisher Scientific) with self-made C18 microcolumns (20 cm long) packed with ReproSil-Pur C18-AQ 1.9 μm resin (Dr. Maisch, cat# r119.aq.0001). The chromatography system was coupled online to the electrospray ion source (Proxeon) of an Orbitrap Exploris 480 mass spectrometer (Thermo Fisher Scientific). The mobile phase consisted of buffer A (0.1% formic acid and 5% acetonitrile) and buffer B (0.1% formic acid and 80% acetonitrile). Peptides were eluted using a gradient with increasing concentrations of buffer B over 110 minutes, at a flow rate of 250 nl/min. Mass spectrometry data was acquired in data-dependent mode with settings for one full scan (resolution: 60,000; m/z range: 350–1600; normalized AGC target: 300%; maximum injection time: 10 ms), followed by top 20 MS/MS scans using higher-energy collisional dissociation (resolution: 15,000; m/z range: 200–2000; normalized AGC target: 100%; maximum injection time: 120 ms; isolation width: 1.3 m/z; normalized collision energy: 28%).
Raw files were analyzed with MaxQuant, version 2.0.3.0. […]

[2] = molecular target: T1, 14-3-3 epsilon (YWHAE) (Homo sapiens, UniProt P62258); assay: Isothermal titration calorimetry (ITC) of GATAD1 peptides with 14-3-3ε; format: binding; details: 18 °C, 400 µM peptide in syringe, 25 µM 14-3-3ε in chamber, 20 mM HEPES pH 7.0, 150 mM NaCl, 2 mM DTT
T1 construct: residues 1 and 236-255 are disordered and therefore not visible in the electron density; GST (N, cleaved yes); made in house; host or cells: Escherichia coli C41 (DE3)
T1 sequence (P62258 1-255): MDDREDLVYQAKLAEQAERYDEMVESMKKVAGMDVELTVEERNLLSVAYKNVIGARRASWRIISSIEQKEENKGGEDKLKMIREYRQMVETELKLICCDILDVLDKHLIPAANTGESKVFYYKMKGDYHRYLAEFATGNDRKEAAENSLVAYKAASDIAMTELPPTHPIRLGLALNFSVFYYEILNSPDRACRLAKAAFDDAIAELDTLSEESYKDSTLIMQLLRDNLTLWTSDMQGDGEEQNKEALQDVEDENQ
Method: The 14-3-3ε (YWHAE) cDNA was purchased from Twist Bioscience in the pTwist Chlor High Copy vector and cloned into the pGEX6P1 plasmid (GE Healthcare) for recombinant expression as a GST-fusion protein followed by a Prescission protease cleavage site. The plasmid was freshly transformed into Escherichia coli C41 (DE3) cells. Cultures were grown in terrific broth supplemented with ampicillin (100 μg/ml) at 37 °C and 80 rpm until an optical density at 600 nm of 0.7 was reached. […] Cells were harvested by centrifugation at 4000 g and frozen at −20 °C.
Following resuspension in lysis buffer (50 mM HEPES/NaOH pH 7.5, 500 mM NaCl and 3 mM Dithiothreitol (DTT)) supplemented with 1 mg deoxyribonuclease I (DNaseI, Roche) and protease inhibitor 4-(2-Aminoethyl) benzenesulfonyl fluoride hydrochloride S7(AEBSF), cells were disrupted using a microfluidizer (Microfluidics). The cell extract was centrifuged at 55,000 g for 45 min at 4 °C to remove insoluble parts. The cleared supernatant was applied onto a prepacked Glutathione Sepharose 4B column (Cytiva) equilibrated in the lysis buffer. The column was extensively washed with lysis buffer. To cleave off the GST tag, 1 mg PreScission protease was diluted in 5 ml OCC buffer (50 mM HEPES/NaOH pH 7.5, 150 mM NaCl, and 3 mM DTT), applied to the column material, and incubated overnight at 4 °C. Cleaved 14-3-3ε protein was eluted from the column using OCC buffer, concentrated and loaded onto an 16/60 S200 column (Cytiva) equilibrated in SEC buffer (20 mM HEPES/NaOH pH 7.5, 150 mM NaCl and 2 mM DTT). Pure and homogenous 14-3-3ε was concentrated to 13 mg/ml, flash-frozen in liquid nitrogen, and stored at −80 °C until further use.
GATAD1 peptides used in these experiments were obtained from JPT peptide technologies with an N-terminus in amine and a C-terminus in amide form with 95% purity. ITC experiments were performed using a PEAQ-ITC microcalorimeter (Malvern). All titrations were performed at 18 °C with 400 µM peptide in the syringe and 25 µM 14-3-3ε in the reaction chamber. The protein and the titration components were dissolved in a buffer containing 20 mM HEPES pH 7.0, 150 mM NaCl, and 2 mM DTT. Malvern software was used for data visualization and fitting. The raw ITC results can be found in Supplementary Fig. 42.

Substance: NPM1
- Log2_Ratio.H.L.normalized.WT_S102P_forward [1]: 1.325
- Ratio.H.L.normalized.WT_S102P_forward [1]: 0.3991
- Log2_Ratio.H.L.normalized.WT_S102P_reverse [1]: 1.034
- Ratio.H.L.normalized.WT_S102P_reverse [1]: 2.0483

Substance: ZNF318
- Log2_Ratio.H.L.normalized.WT_S102P_forward [1]: 1.385
- Ratio.H.L.normalized.WT_S102P_forward [1]: 0.3829
- Log2_Ratio.H.L.normalized.WT_S102P_reverse [1]: 1.241
- Ratio.H.L.normalized.WT_S102P_reverse [1]: 2.3636

Substance: PSPGRQNSKAPKLTL [NCOA6, wild-type non-phosphorylated 15-mer]
- Log2_Ratio.H.L.normalized.WT_S102P_forward [1]: 1.334
- Ratio.H.L.normalized.WT_S102P_forward [1]: 0.3966
- Log2_Ratio.H.L.normalized.WT_S102P_reverse [1]: 1.3003
- Ratio.H.L.normalized.WT_S102P_reverse [1]: 2.4628

Substance: HDGFRP2
- Log2_Ratio.H.L.normalized.WT_S102P_forward [1]: 1.523
- Ratio.H.L.normalized.WT_S102P_forward [1]: 0.348
- Log2_Ratio.H.L.normalized.WT_S102P_reverse [1]: 1.484
- Ratio.H.L.normalized.WT_S102P_reverse [1]: 2.7966

Substance: NCOR1
- Log2_Ratio.H.L.normalized.WT_S102P_forward [1]: 1.327
- Ratio.H.L.normalized.WT_S102P_forward [1]: 0.3987
- Log2_Ratio.H.L.normalized.WT_S102P_reverse [1]: 1.25
- Ratio.H.L.normalized.WT_S102P_reverse [1]: 2.3792

Substance: LRNTKYKPAPAAEKK [GATAD1_Ser102Pro, GATAD1 15-mer with the disease-linked S102P mutation]
- Interaction with 14-3-3ε by ITC (in words) [2]: Neither the non-phosphorylated wild-type peptide nor the peptide with the disease-linked S102P mutation showed detectable binding; also recorded: do not interact

Substance: TPR
- Log2_Ratio.H.L.normalized.WT_S102P_forward [1]: 1.211
- Ratio.H.L.normalized.WT_S102P_forward [1]: 0.4319
- Log2_Ratio.H.L.normalized.WT_S102P_reverse [1]: 1.117
- Ratio.H.L.normalized.WT_S102P_reverse [1]: 2.169

Substance: ZC3H4
- Log2_Ratio.H.L.normalized.WT_S102P_forward [1]: 1.304
- Ratio.H.L.normalized.WT_S102P_forward [1]: 0.405
- Log2_Ratio.H.L.normalized.WT_S102P_reverse [1]: 1.071
- Ratio.H.L.normalized.WT_S102P_reverse [1]: 2.1009

Substance: MED1
- Log2_Ratio.H.L.normalized.WT_S102P_forward [1]: 1.28
- Ratio.H.L.normalized.WT_S102P_forward [1]: 0.4118
- Log2_Ratio.H.L.normalized.WT_S102P_reverse [1]: 1.018
- Ratio.H.L.normalized.WT_S102P_reverse [1]: 2.0257

Substance: BCLAF1
- Log2_Ratio.H.L.normalized.WT_S102P_forward [1]: 1.402
- Ratio.H.L.normalized.WT_S102P_forward [1]: 0.3784
- Log2_Ratio.H.L.normalized.WT_S102P_reverse [1]: 1.045
- Ratio.H.L.normalized.WT_S102P_reverse [1]: 2.064

Substance: PCF11
- Log2_Ratio.H.L.normalized.WT_S102P_forward [1]: 1.509
- Ratio.H.L.normalized.WT_S102P_forward [1]: 0.3515
- Log2_Ratio.H.L.normalized.WT_S102P_reverse [1]: 1.2027
- Ratio.H.L.normalized.WT_S102P_reverse [1]: 2.3017

Substance: RBBP6
- Log2_Ratio.H.L.normalized.WT_S102P_forward [1]: 1.156
- Ratio.H.L.normalized.WT_S102P_forward [1]: 0.4486
- Log2_Ratio.H.L.normalized.WT_S102P_reverse [1]: 1.0059
- Ratio.H.L.normalized.WT_S102P_reverse [1]: 2.0082

Substance: LRNTKYKEAPAAEKK [S102E, phosphomimetic S102E mutant GATAD1 peptide]
- Interaction with 14-3-3ε by ITC (in words) [2]: do not interact

Substance: MGA
- Log2_Ratio.H.L.normalized.WT_S102P_forward [1]: 1.435
- Ratio.H.L.normalized.WT_S102P_forward [1]: 0.3699
- Log2_Ratio.H.L.normalized.WT_S102P_reverse [1]: 1.064
- Ratio.H.L.normalized.WT_S102P_reverse [1]: 2.0912

Substance: PSME3
- Log2_Ratio.H.L.normalized.WT_S102P_forward [1]: 1.443
- Ratio.H.L.normalized.WT_S102P_forward [1]: 0.3677
- Log2_Ratio.H.L.normalized.WT_S102P_reverse [1]: 1.216
- Ratio.H.L.normalized.WT_S102P_reverse [1]: 2.3229

Substance: LRNTKYKSAPAAEKK [GATAD1, wild-type non-phosphorylated GATAD1 15-mer; ITC form with C-terminus in amide form]
- Interaction with 14-3-3ε by ITC (in words) [2]: do not interact
- Interaction with 14-3-3ε by ITC (in words) ([2]; listed as non-phosphorylated wild-type peptide): Neither the non-phosphorylated wild-type peptide nor the peptide with the disease-linked S102P mutation showed detectable binding

Substance: BOD1L1
- Log2_Ratio.H.L.normalized.WT_S102P_forward [1]: 1.279
- Ratio.H.L.normalized.WT_S102P_forward [1]: 0.4121
- Log2_Ratio.H.L.normalized.WT_S102P_reverse [1]: 1.335
- Ratio.H.L.normalized.WT_S102P_reverse [1]: 2.5226
